Experimental data from ChEMBL document CHEMBL3352560, “Optimization of drug-like properties of nonsteroidal glucocorticoid mimetics and identification of a clinical candidate” (ACS Med Chem Lett, 2014).
Converted amounts (≈) assume the structure as drawn.

Columns and labels:
[1] = buffer, pH 6.8, 24 h
[2] = in vivo; conditions: rat
[3] = physchem; conditions: buffer, pH 6.8

Therm_solubility [1] | half-life [2] | solubility thermodynamic at 24 h [3] | SMILES
5 µg/mL | 4.2 h |  | CCS(=O)(=O)c1cc2cc(C[C@](O)(CC(C)(C)c3ccc(F)cc3C(N)=O)C(F)(F)F)[nH]c2cn1 [BI 653048]
 |  | 47 µg/mL (≈ 89.4 µM) | CC(C)(CC(O)(Cc1cc2cc(N3CCOCC3)ncc2[nH]1)C(F)(F)F)c1cccc(S(C)(=O)=O)c1 (stereo not drawn)
